{
  "source": "paper PMC3106281",
  "about": "(Analytical biochemistry, 2010)",
  "key": {"[1]": {"system": "colistin-resistant P. aeruginosa clinical isolate", "assay_type": "cell-based, Pseudomonas aeruginosa", "conditions": "broth microdilution, two replicates"}, "[2]": {"system": "colistin-resistant K. pneumoniae clinical isolate", "assay_type": "cell-based, Klebsiella pneumoniae", "conditions": "broth microdilution"}, "[3]": {"system": "colistin-resistant A. baumannii clinical isolate", "assay_type": "cell-based, Acinetobacter baumannii", "conditions": "broth microdilution"}, "A. baumannii ATCC 19606": {"system": "A. baumannii ATCC 19606", "assay_type": "cell-based, Acinetobacter baumannii", "conditions": "broth microdilution"}, "K. pneumoniae ATCC 13883": {"system": "K. pneumoniae ATCC 13883", "assay_type": "cell-based, Klebsiella pneumoniae", "conditions": "broth microdilution"}, "[4]": {"conditions": "ref [52], cited from earlier work"}, "[5]": {"conditions": "above the Tc; ref [54]; cited from earlier work"}, "[6]": {"experiment": "Isothermal titration calorimetry", "assay_type": "binding, Escherichia coli", "conditions": "ITC, 37°C"}, "bacteria": {"system": "bacteria", "conditions": "ref [47]; [48]; cited from earlier work"}, "[7]": {"experiment": "Fluorometric assay, purified LPS", "assay_type": "binding", "conditions": "E. coli, K. pneumoniae, S. enterica (and P. aeruginosa) LPS"}},
  "note": "Like-named read-outs stand apart in the source and are kept apart here. Bridge positions count the residues as written; N and C are the ends. Square brackets hold non-standard residues; d marks the D form. Peptide text beside a SMILES is read from it. * marks the point of attachment. X1 = CC[C@H](C)CCCCC(=O)*; Dab = NCC[C@H](N)C(=O)O",
  "data": [
    {"compound": "CC[C@H](C)CCCCC(=O)N[C@@H](CCN)C(=O)N[C@H](C(=O)N[C@@H](CCN)C(=O)N[C@H]1CCNC(=O)[C@H]([C@@H](C)O)NC(=O)[C@H](CCN)NC(=O)[C@H](CCN)NC(=O)[C@H](CC(C)C)NC(=O)[C@@H](CC(C)C)NC(=O)[C@H](CCN)NC1=O)[C@@H](C)O", "note": "[Colistin, colistin] (X1-[Dab]T[Dab][Dab][Dab][dL]L[Dab][Dab]T; lactam 4-C (inferred); N-terminus assumed)", "values": [
      {"measurement": "MIC", "setting": "[1]", "result": "> 128", "unit": "µg/mL"},
      {"measurement": "MIC", "setting": "[2]", "result": "> 128", "unit": "µg/mL"},
      {"measurement": "MIC", "setting": "[3]", "result": 16, "unit": "µg/mL"},
      {"measurement": "MIC", "setting": "A. baumannii ATCC 19606", "result": 1, "unit": "µg/mL"},
      {"measurement": "MIC", "setting": "K. pneumoniae ATCC 13883", "result": 1, "unit": "µg/mL"}
    ]},
    {"compound": "polymyxin B [PmB]", "values": [
      {"measurement": "Calorimetric reaction with LPS", "setting": "[4]; temperatures ≤30°C, below Tc of LPS", "result": "endothermic"},
      {"measurement": "Calorimetric reaction with LPS", "setting": "[4]; ≥35°C, above phase transition temperature, [53]", "result": "exothermic"},
      {"measurement": "Calorimetric reaction with LPS", "setting": "[5]", "result": "endothermic"},
      {"measurement": "Absolute peptide concentration in the cell where saturation began", "setting": "[6]; LPS 125 μM, 14th injection (PmB), 18th injection (DPmB3)", "result": 98, "unit": "µM"},
      {"measurement": "ΔH1", "setting": "[6]; first set of sites, 20 mM HEPES pH 7.0, two-site model", "result": "-1.5 ± 0.4", "unit": "kcal/mol"},
      {"measurement": "ΔS1", "setting": "[6]; first set of sites, calculated from ΔH and ΔG0", "result": 6.9, "unit": "kcal/mol"},
      {"measurement": "ΔH2", "setting": "[6]; second set of sites, 20 mM HEPES pH 7.0, two-site model", "result": "-12 ± 3.7", "unit": "kcal/mol"},
      {"measurement": "ΔS2", "setting": "[6]; second set of sites, calculated from ΔH and ΔG0", "result": -1.8, "unit": "kcal/mol"}
    ]},
    {"compound": "polymyxin B nonapeptide [PBN]", "values": [
      {"measurement": "Antibacterial activity", "setting": "bacteria", "result": "negligible antibacterial activity"},
      {"measurement": "Binding affinity for isolated LPS, comparison in words", "setting": "[7]", "result": "lowest binding affinity for LPS"}
    ]}
  ]
}
